What was measured:
[1] = system: oilfield SRB consortium; experiment: Biocidal efficacy against SRB under high temperature and sulfide-rich conditions; type: cell-based, sulfate reducing bacteria (SRB); conditions: alone or in the combination, 80° C. anaerobic, daily challenge with SRB and 10 ppm sulfide
Experimental: The synergy indexes reported in the following examples are calculated using the following equation: Synergy Index=Ca/CA+Cb/CB where Ca: Concentration of biocide A required to achieve a certain level or complete bacterial kill when used in combination; CA: Concentration of biocide A required to achieve a certain level or complete bacterial kill when used alone; Cb: Concentration of biocide B required to achieve a certain level or complete bacterial kill when used in combination; and CB: Concentration of biocide B required to achieve a certain level or complete bacterial kill when used alone. […] In the examples below, aliquots of the biocide-treated samples are removed at predetermined time points and the biocide concentration required to achieve a certain level or complete bacterial kill is determined by culture-based methods including serial dilution. […] After incubation for 2 h the biocidal efficacy is evaluated against the field SRB consortium at 40° C. for 2 h. After incubation for 7 days the biocidal efficacy are evaluated again for 24 h. The biocidal efficacy is determined by the lowest testing biocide dosage concentration required to achieve a 3 log 10 or greater bacterial reduction, of both 2 hours and 7 days heat and SRB-sulfide exposure. Synergy Index is then calculated. […]

[2] = system: oil field isolated anaerobic SRB consortium; experiment: Biocidal efficacy (MBC) against SRB, 40° C. for 24 hour; type: cell-based, sulfate reducing bacteria (SRB); conditions: alone or in the combination, minimum tested biocide concentration for bacteria kill, 10^6 to 10^7 CFU/mL
Experimental: The synergy indexes reported in the following examples are calculated using the following equation: Synergy Index=Ca/CA+Cb/CB where Ca: Concentration of biocide A required to achieve a certain level or complete bacterial kill when used in combination; CA: Concentration of biocide A required to achieve a certain level or complete bacterial kill when used alone; Cb: Concentration of biocide B required to achieve a certain level or complete bacterial kill when used in combination; and CB: Concentration of biocide B required to achieve a certain level or complete bacterial kill when used alone. A synergy index (SI) of 1 indicates additivity, a synergy index of less than 1 indicates synergy, and a synergy index greater than 1 indicates antagonism. Various methods known to those skilled in the art can be used for evaluating biocidal efficacy. In the examples below, aliquots of the biocide-treated samples are removed at predetermined time points and the biocide concentration required to achieve a certain level or complete bacterial kill is determined by culture-based methods including serial dilution. […] After the mixtures are incubated at 40° C. for 24 hour, the biocidal efficacy is determined by minimum tested biocide concentration for bacteria kill in the aliquots (MBC). […]

Structure (SMILES) | Dosage required for 3log10 bacterial reduction of both 2 h and 7 day heat and SRB-sulfide exposure (active ppm) TA ([1]; concentration of TA) | MBC (active ppm) TA ([2]; concentration of TA) | Dosage required for 3log10 bacterial reduction of both 2 h and 7 day heat and SRB-sulfide exposure (active ppm) BNPD ([1]; concentration of BNPD) | MBC (active ppm) BNPD ([2]; concentration of BNPD)
O=[N+]([O-])C(CO)(CO)CO [0:1, tris(hydroxymethyl)nitromethane] | 360.0 active ppm | 36.5 active ppm | – | –
O=[N+]([O-])C(Br)(CO)CO [1:0, 2-bromo-2-nitro-1,3-propanediol] | – | – | 180.0 active ppm | 3.5 active ppm
